In ChEMBL document CHEMBL5104189, “Piptide Chemotypes for Perturbation of the Interaction of Urokinase with Its Receptor” (J Med Chem, 2022):
The source made the active and inactive calls. The calls are words filed in the database; no cut-off is given here.

How the values were obtained:
[1] = biological target: T1, Urokinase-type plasminogen activator/surface receptor (Homo sapiens, UniProt P00749+Q03405); experiment: Inhibition of uPAR/uPA (unknown origin) interaction by ELISA; format: protein assay
[2] = biological target: T1, Urokinase-type plasminogen activator/surface receptor; experiment: Inhibition of uPAR/uPA (unknown origin) interaction assessed as dissociation constant by fluorescence polarization (FP) assay; format: protein assay
MDA-MB-231 [3] = experiment: Antimigratory activity in human MDA-MB-231 cells assessed as scratch closure speed at 5 to 50 uM by scratch wound healing assay; format: functional, cell-based; settings: dose 5-50 µM
MDA-MB-231 [4] = experiment: Anti-invasive activity in human MDA-MB-231 cells assessed as relative invasion at 5 to 50 uM by scratch wound healing assay; format: functional, cell-based; settings: dose 5-50 µM
MDA-MB-231 [5] = experiment: Antimigratory activity in human MDA-MB-231 cells assessed as relative migration at 5 to 50 uM by scratch wound healing assay; format: functional, cell-based; settings: dose 5-50 µM

IC50 [1]	Ki [2]	SMILES	Activity (MDA-MB-231 [3])	Activity (MDA-MB-231 [4])	Activity (MDA-MB-231 [5])
18.4 µM	0.7 µM	Cc1ccc(N2C(=O)C(O)=C(C(=O)c3ccc(Cl)cc3)C2c2cccc(F)c2)cc1Br (centres undefined)	–	–	–
3.06 µM	6.2 µM	NCCCC[C@H](C(=O)N1CCN([C@@H](Cc2ccccc2)C(N)=O)CC1)N1CCN(C(=O)[C@H](N)CO)CC1	–	–	–
8.35 µM	7.5 µM	CC[C@H](C)[C@@H](C(N)=O)n1cc([C@@H](CO)N2C(=O)N[C@@H](Cc3ccccc3)C2=O)nn1	–	–	–
3.06 µM	2.75 µM	NCCCC[C@H](C(=O)N1CCN([C@H](Cc2ccccc2)C(N)=O)CC1)N1CCN(C(=O)[C@H](N)CO)CC1	Active	Active	–
14.7 µM	13.2 µM	NC(=O)C[C@H](C(=O)N1CCN([C@H](CO)C(N)=O)CC1)N1CCN(C(=O)[C@H](N)Cc2ccccc2)CC1	–	–	–
15.5 µM	2.5 µM	Cc1cccc2c(C(=O)N3CCN(c4c(C)n(C)c(=O)n(C)c4=O)CC3)cc(-c3ccccc3)nc12	–	–	–
2.85 µM	2.56 µM	CC[C@H](C)[C@@H](C(N)=O)n1cc([C@@H](CO)NC(=O)N2CCN([C@@H](CO)C(=O)N3CCN([C@@H](CCCCN)C(=O)O)CC3)CC2)nn1	–	–	–
2.45 µM	2.2 µM	NCCCC[C@H](C(=O)N1CCN([C@@H](CO)C(N)=O)CC1)n1cc([C@@H](Cc2ccccc2)N2C(=O)N[C@@H](CO)C2=O)nn1	–	–	Active
